Measurements: paper PMC4400266 (ACS chemical neuroscience, 2015)

Tests used:
[1] = target: T1, human OX2 receptors (Homo sapiens, UniProt O43614); test: Calcium mobilization Ke assay; format: cell-based
T1 sequence (O43614 1-444): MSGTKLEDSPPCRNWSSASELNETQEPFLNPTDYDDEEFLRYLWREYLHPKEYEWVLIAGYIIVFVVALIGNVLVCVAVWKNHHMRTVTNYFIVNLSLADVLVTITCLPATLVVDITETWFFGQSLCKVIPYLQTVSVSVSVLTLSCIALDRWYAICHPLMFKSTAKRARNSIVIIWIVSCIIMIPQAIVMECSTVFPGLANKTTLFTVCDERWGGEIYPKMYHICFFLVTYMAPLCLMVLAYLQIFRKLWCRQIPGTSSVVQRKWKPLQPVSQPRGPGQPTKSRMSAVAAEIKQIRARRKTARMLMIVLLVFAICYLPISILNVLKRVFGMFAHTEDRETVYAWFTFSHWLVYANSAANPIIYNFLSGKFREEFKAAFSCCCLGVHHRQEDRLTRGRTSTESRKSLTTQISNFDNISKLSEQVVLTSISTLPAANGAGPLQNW

[2] = target: T2, human OX1 receptors (Homo sapiens, UniProt O43613); test: Calcium mobilization Ke assay; format: cell-based; details: for OX2/OX1: ratio of Ke OX2 to Ke OX1 (table column)
T2 sequence (O43613 1-425): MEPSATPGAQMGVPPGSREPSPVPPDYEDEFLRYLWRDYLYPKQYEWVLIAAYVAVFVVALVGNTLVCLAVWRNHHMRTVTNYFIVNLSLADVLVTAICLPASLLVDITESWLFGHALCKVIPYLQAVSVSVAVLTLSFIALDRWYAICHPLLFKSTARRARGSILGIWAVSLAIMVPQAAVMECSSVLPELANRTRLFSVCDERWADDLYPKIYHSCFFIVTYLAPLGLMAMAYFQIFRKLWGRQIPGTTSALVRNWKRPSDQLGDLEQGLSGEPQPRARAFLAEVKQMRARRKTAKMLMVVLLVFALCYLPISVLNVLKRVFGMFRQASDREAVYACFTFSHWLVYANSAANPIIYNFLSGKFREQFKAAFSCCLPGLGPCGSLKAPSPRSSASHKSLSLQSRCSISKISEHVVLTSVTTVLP

[3] = test system: Sprague-Dawley rats; test: Locomotor activity and acute cocaine-induced hyperactivity; format: in vivo, rat; details: 10 mg/kg alone, i.p. (data not shown)
[4] = test system: OX1; details: cited from earlier work
[5] = administrated i.p.; cited from earlier work

Row | Kb [1] [µM] | OX2/OX1 [2] | SMILES | other results
1 | > 10 | >32 | CCNc1cc(CC2c3cc(OC)c(OC)cc3CCN2CC(=O)NCc2ccccc2)ccc1OC (centres unmarked) [Compound 29, N-Benzyl-2-(1-{[3-(ethylamino)-4-methoxyphenyl]methyl}-6,7-dimethoxy-1,2,3,4-tetrahydroisoquinolin-2-yl)acetamide] | 
2 | > 10 | >40 | COc1cc2c(cc1OC)C(Cc1ccc(N(C)C)cc1)N(CC(=O)NCc1ccccc1)CC2 (centres unmarked) [Compound 48, N-Benzyl-2-(1-{[4-(dimethylamino)phenyl]methyl}-6,7-dimethoxy-1,2,3,4-tetrahydroisoquinolin-2-yl)acetamide] | 
3 |  |  | COc1cc2c(cc1OC)C(Cc1ccc(OS(=O)(=O)c3ccccc3)c(OC)c1)N(CC(=O)NCc1ccccc1)CC2 (centres unmarked) [Compound 23, 4-({2-[(Benzylcarbamoyl)methyl]-6,7-dimethoxy-1,2,3,4-tetrahydroisoquinolin-1-yl}methyl)-2-methoxyphenyl benzenesulfonate] | decrease in OX1 potency compared to 11 [2]: ~ 9 fold
4 | 1.2 ± 0.16 | <0.12 | COc1cc2c(cc1OC)C(Cc1cccc([N+](=O)[O-])c1)N(CC(=O)NCc1ccccc1)CC2 (centres unmarked) [Compound 42, N-Benzyl-2-{6,7-dimethoxy-1-[(3-nitrophenyl)methyl]-1,2,3,4-tetrahydroisoquinolin-2-yl}acetamide] | 
5 | 2.08 ± 0.6 | 48 | CCCC(=O)Oc1ccc(CC2c3cc(OC)c(OC)cc3CCN2CC(=O)NCc2ccccc2)cc1OC (centres unmarked) [Compound 16, 4-({2-[(Benzylcarbamoyl)methyl]-6,7-dimethoxy-1,2,3,4-tetrahydroisoquinolin-1-yl}methyl)-2-methoxyphenyl butanoate] | 
6 | 0.66 ± 0.16 | 8.8 | COc1cc2c(cc1OC)C(Cc1cccc(N(C)C)c1)N(CC(=O)NCc1ccccc1)CC2 (centres unmarked) [Compound 44, N-Benzyl-2-(1-{[3-(dimethylamino)phenyl]methyl}-6,7-dimethoxy-1,2,3,4-tetrahydroisoquinolin-2-yl)acetamide] | 
7 |  |  | CCCOc1ccc(CC2c3cc(OCCC)c(OC)cc3CCN2CC(=O)NCc2ccccc2)cc1OC (centres unmarked) [Compound 73, N-Benzyl-2-{6-methoxy-1-[(3-methoxy-4-propoxyphenyl)methyl]-7-propoxy-1,2,3,4-tetrahydroisoquinolin-2-yl}acetamide] | spontaneous activity [3]: did not significantly alter the spontaneous activity; OX1 selectivity over the OX2 receptor [2]: > 620 fold
8 | > 10 | >6.8 | COc1cc2c(cc1OC)C(Cc1cccc(OC(C)C)c1)N(CC(=O)NCc1ccccc1)CC2 (centres unmarked) [Compound 41, N-Benzyl-2-(6,7-dimethoxy-1-{[3-(propan-2-yloxy)phenyl]methyl}-1,2,3,4-tetrahydroisoquinolin-2-yl)acetamide] | decrease in OX1 potency compared to 11 [2]: ~ 7 fold
9 | > 10 |  | COc1cc2c(cc1OC)C(C(C)c1ccccc1)N(CC(=O)NCc1ccccc1)CC2 (centres unmarked) [Compound 56, N-Benzyl-2-[6,7-dimethoxy-1-(1-phenylethyl)-1,2,3,4-tetrahydroisoquinolin-2-yl]acetamide] | 
10 |  |  | Cc1nc2ccc(NC(=O)Nc3ccnc4cccnc34)cc2o1 [SB-334867] | affinity for OX1 higher than for OX2 [4]: ~ 50 fold; development of locomotor sensitization to cocaine [5]: block the development of locomotor sensitization to cocaine
11 | > 10 |  | COc1cc2c(cc1OC)C(Cc1ccc(C)c(C)c1)N(CC(=O)NCc1ccccc1)CC2 (centres unmarked) [Compound 53, N-Benzyl-2-{1-[(3,4-dimethylphenyl)methyl]-6,7-dimethoxy-1,2,3,4-tetrahydroisoquinolin-2-yl}acetamide] | 
12 |  |  | COc1ccc(CC2c3cc(OC)c(OC)cc3CCN2CC(=O)NCc2ccccc2)cc1NCc1ccccc1 (centres unmarked) [Compound 33, N-Benzyl-2-(1-{[3-(benzylamino)-4-methoxyphenyl]methyl}-6,7-dimethoxy-1,2,3,4-tetrahydroisoquinolin-2-yl)acetamide] | OX1 antagonist activity in words ([2]; at concentrations up to 10 μM): no activity
13 | > 10 | >83 | CCCCCCOc1ccc(CC2c3cc(OC)c(OC)cc3CCN2CC(=O)NCc2ccccc2)cc1OC (centres unmarked) [Compound 14, N-Benzyl-2-(1-{[4-(hexyloxy)-3-methoxyphenyl]methyl}-6,7-dimethoxy-1,2,3,4-tetrahydroisoquinolin-2-yl)acetamide] | 
14 |  |  | COc1cc2c(cc1OC)C(Cc1ccc(OCc3ccccc3)c(OC)c1)N(CC(=O)NCc1ccccc1)CC2 (centres unmarked) [Compound 18, N-Benzyl-2-(1-{[4-(benzyloxy)-3-methoxyphenyl]methyl}-6,7-dimethoxy-1,2,3,4-tetrahydroisoquinolin-2-yl)acetamide] | decrease in OX1 potency compared to 11 [2]: 2 fold
15 | > 10 | >48 | CCN(CC)c1cc(CC2c3cc(OC)c(OC)cc3CCN2CC(=O)NCc2ccccc2)ccc1OC (centres unmarked) [Compound 30, N-Benzyl-2-(1-{[3-(diethylamino)-4-methoxyphenyl]methyl}-6,7-dimethoxy-1,2,3,4-tetrahydroisoquinolin-2-yl)acetamide] | 
16 | > 10 | >118 | COc1cc2c(cc1OC)C(Cc1ccc(C(C)C)cc1)N(CC(=O)NCc1ccccc1)CC2 (centres unmarked) [Compound 51, N-Benzyl-2-(6,7-dimethoxy-1-{[4-(propan-2-yl)phenyl]methyl}-1,2,3,4-tetrahydroisoquinolin-2-yl)acetamide] | 
17 | > 10 | >11 | CCCNc1cc(CC2c3cc(OC)c(OC)cc3CCN2CC(=O)NCc2ccccc2)ccc1OC (centres unmarked) [Compound 31, N-Benzyl-2-(6,7-dimethoxy-1-{[4-methoxy-3-(propylamino)phenyl]methyl}-1,2,3,4-tetrahydroisoquinolin-2-yl)acetamide] | 
18 | > 10 | >23 | COc1cc2c(cc1OC)C(Cc1ccc3ncccc3c1)N(CC(=O)NCc1ccccc1)CC2 (centres unmarked) [Compound 55, N-Benzyl-2-[6,7-dimethoxy-1-(quinolin-6-ylmethyl)-1,2,3,4-tetrahydroisoquinolin-2-yl]acetamide] | 
19 | 1.62 ± 0.23 | 6.6 | COc1cc2c(cc1OC)C(Cc1ccc3ccccc3c1)N(CC(=O)NCc1ccccc1)CC2 (centres unmarked) [Compound 54, N-Benzyl-2-[6,7-dimethoxy-1-(naphthalen-2-ylmethyl)-1,2,3,4-tetrahydroisoquinolin-2-yl]acetamide] | 
20 | > 10 |  | COc1cc2c(cc1OC)C(Cc1cc(OC)c(OC)c(OC)c1)N(CC(=O)NCc1ccccc1)CC2 (centres unmarked) [Compound 52, N-Benzyl-2-{6,7-dimethoxy-1-[(3,4,5-trimethoxyphenyl)methyl]-1,2,3,4-tetrahydroisoquinolin-2-yl}acetamide] | 
21 | > 10 | >24 | COc1cc(CC2c3cc(OC)c(OC)cc3CCN2CC(=O)NCc2ccccc2)ccc1O (centres unmarked) [Compound 12, N-Benzyl-2-{1-[(4-hydroxy-3-methoxyphenyl)methyl]-6,7-dimethoxy-1,2,3,4-tetrahydroisoquinolin-2-yl}acetamide] | 
22 | > 10 |  | COc1ccc(CCC2c3cc(OC)c(OC)cc3CCN2CC(=O)NCc2ccccc2)cc1OC (centres unmarked) [Compound 60, N-Benzyl-2-{1-[2-(3,4-dimethoxyphenyl)ethyl]-6,7-dimethoxy-1,2,3,4-tetrahydroisoquinolin-2-yl}acetamide] | 
23 | > 10 | >20 | COc1cc2c(cc1OC)C(Cc1ccc(OC(C)C)cc1)N(CC(=O)NCc1ccccc1)CC2 (centres unmarked) [Compound 46, N-Benzyl-2-(6,7-dimethoxy-1-{[4-(propan-2-yloxy)phenyl]methyl}-1,2,3,4-tetrahydroisoquinolin-2-yl)acetamide] | 
24 | > 10 | >27 | CCCOc1ccc(CC2c3cc(OC)c(OC)cc3CCN2CC(=O)NCc2ccccc2)cc1 (centres unmarked) [Compound 45, N-Benzyl-2-{6,7-dimethoxy-1-[(4-propoxyphenyl)methyl]-1,2,3,4-tetrahydroisoquinolin-2-yl}acetamide] | 
25 |  |  | COc1cc2c(cc1OC)C(Cc1ccc(OC)c([N+](=O)[O-])c1)N(CC(=O)NCc1ccccc1)CC2 (centres unmarked) [Compound 26, N-Benzyl-2-{6,7-dimethoxy-1-[(4-methoxy-3-nitrophenyl)methyl]-1,2,3,4-tetrahydroisoquinolin-2-yl}acetamide] | decrease in OX1 potency compared to 11 [2]: ~ 7 fold
26 | 0.97 ± 0.35 | 76.7 | COc1cc2c(cc1OC)C(Cc1ccc(OC)c(N(C)C)c1)N(CC(=O)NCc1ccccc1)CC2 (centres unmarked) [Compound 28, N-Benzyl-2-(1-{[3-(dimethylamino)-4-methoxyphenyl]methyl}-6,7-dimethoxy-1,2,3,4-tetrahydroisoquinolin-2-yl)acetamide] | 

Row | SMILES | Kb [1] [µM] | OX2/OX1 [2] | other results
27 | CCCCOc1ccc(CC2c3cc(OC)c(OC)cc3CCN2CC(=O)NCc2ccccc2)cc1OC (centres unmarked) [Compound 13, N-Benzyl-2-{1-[(4-butoxy-3-methoxyphenyl)methyl]-6,7-dimethoxy-1,2,3,4-tetrahydroisoquinolin-2-yl}acetamide] | 2 ± 0.86 | 42 | 
